Data: patent publication US20250368616A1, “NITROGEN-CONTAINING HETEROCYCLIC DERIVATIVE INHIBITOR, AND PREPARATION METHOD THEREFOR AND USE THEREOF” (SHANGHAI HANSOH BIOMEDICAL CO., LTD., priority 2021, published 2025)

tested on: Ba/F3 EGFR Del19/C797S cells; test: Cell proliferation inhibition assay (Cell Titer-Glo), Ba/F3 EGFR Del19/C797S; format: cell-based; conditions: 72 hours, read-out: Ba/F3 EGFR Del19_C797S IC50
Description: Test Example 2: Cell Proliferation Inhibition Assay
Experimental objective: The objective of this test example is to test the inhibitory activity of compounds on the proliferation of different EGFR C797S drug-resistant mutant cell lines Ba/F3 EGFR Del19/T790M/C797S, Ba/F3 EGFR L858R/T790M/C797S, and Ba/F3 EGFR Del19/C797S.
• Ba/F3 EGFR Del19/T790M/C797S cells were purchased from KYinno Biotechnology Co., Ltd.; • Ba/F3 EGFR Del19/C797S cells were purchased from CoBioer Biosciences Co., Ltd.; • Ba/F3 EGFR L858R/T790M/C797S cells were purchased from CoBioer Biosciences Co., Ltd.; • Cell Titer-Glo was purchased from Promega, with a catalog number of G7573; • RPMI 1640 was purchased from Gibco, with a catalog number of 22400089; • FBS was purchased from Gibco, with a catalog number of 10091148; • cell culture plates were purchased from Corning, with a catalog number of 3610.
The inhibitory activity of the compound on the proliferation of different EGFR C797S drug-resistant mutant cell lines was detected using the Cell Titer-Glo method. The different cell lines were cultured in RPMI 1640 complete culture medium containing 10% FBS under conditions of 37° C. and 5% CO2, the cells were collected by centrifugation when growing to a certain density, and adjusted to appropriate cell density after counting, the cells were spread on a white 96-well plate at 90 μL/well, and cultured in a 37° C., 5% CO2 incubator overnight, prepared compound solutions of different concentrations were added at 10 μL/well, corresponding solvent controls were set, and all wells were cultured in a 37° C., 5% CO2 incubator for 72 hours, 50 μL of CellTiter-Glo solution was added to each well, shook and mixed evenly, and incubated in the dark for 10 minutes, and a BioTek Synergy H1 microplate reader was used for reading.
The luminescence signal value was used to calculate the inhibition rate. Graphpad Prism software was used to fit the concentration and inhibition rate to a nonlinear regression curve, so as to obtain the IC50 value, as shown in Tables 3 and 4 below for details.

Row | SMILES | IC50 [nM]
1 | COC(=O)NC1CN(c2ccc(C(C)C)c3cc(Nc4ccnc(-c5cn(C)nc5Cl)n4)ncc23)C1 [Example 72, methyl (1-(3-((2-(3-chloro-1-methyl-1H-pyrazol-4-yl)pyrimidin-4-yl)amino)-5-isopropylisoquinolin-8-yl)azetidin-3-yl)carbamate] | 77
2 | CC(C)c1ccc(N2C[C@H](CS(C)(=O)=O)[C@H]2C)c2cnc(Nc3ccnc(-c4cnn(C5CC5(F)F)c4)n3)cc12 (stereo partly drawn) [Example 12, N-(2-(1-(2,2-difluorocyclopropyl)-1H-pyrazol-4-yl)pyrimidin-4-yl)-5-isopropyl-8-((2R,3S)-2-methyl-3-((methanesulfonyl)methyl)azetidin-1-yl)isoquinolin-3-amine] | 56
3 | CC(C)c1ccc(N2C[C@H](CS(C)(=O)=O)[C@H]2C)c2cnc(Nc3ccnc(-c4cn(C)nc4C(F)(F)F)n3)cc12 [Example 56, 5-isopropyl-8-((2R,3S)-2-methyl-3-((methanesulfonyl)methyl)azetidin-1-yl)-N-(2-(1-methyl-3-(trifluoromethyl)-1H-pyrazol-4-yl)pyrimidin-4-yl)isoquinolin-3-amine] | 10
4 | CC(C)c1ccc(N2C[C@H](CS(C)(=O)=O)[C@H]2C)c2cnc(Nc3ccnc(-c4c[nH]nc4Cl)n3)cc12 [Example 10, N-(2-(3-chloro-1H-pyrazol-4-yl)pyrimidin-4-yl)-5-isopropyl-8-((2R,3S)-2-methyl-3-((methanesulfonyl)methyl)azetidin-1-yl)isoquinolin-3-amine] | 60
5 | CC(C)c1ccc(N2CC(C[N+](=O)[O-])C2)c2cnc(Nc3ccnc(-c4cn(C)nc4Cl)n3)cc12 [Example 75, N-(2-(3-chloro-1-methyl-1H-pyrazol-4-yl)pyrimidin-4-yl)-5-isopropyl-8-(3-(nitromethyl)azetidin-1-yl)isoquinolin-3-amine] | 28
6 | CC(C)c1ccc(N2C[C@H](CS(C)(=O)=O)[C@H]2C)c2cnc(Nc3ccnc(-c4cnn(C5(CC#N)CC5)c4)n3)cc12 [Example 50, 2-(1-(4-(4-((5-isopropyl-8-((2R,3S)-2-methyl-3-((methanesulfonyl)methyl)azetidin-1-yl)isoquinolin-3-yl)amino)pyrimidin-2-yl)-1H-pyrazol-1-yl)cyclopropyl)acetonitrile] | 51
7 | CC(C)c1ccc(N2C[C@H](CS(C)(=O)=O)[C@H]2C)c2cnc(Nc3ccnc(-c4cn(CC(O)CF)nc4Cl)n3)cc12 (stereo partly drawn) [Example 82, 1-(3-chloro-4-(4-((5-isopropyl-8-((2R,3S)-2-methyl-3-((methanesulfonyl)methyl)azetidin-1-yl)isoquinolin-3-yl)amino)pyrimidin-2-yl)-1H-pyrazol-1-yl)-3-fluoropropan-2-ol] | 33
8 | CC(C)c1ccc(N2CC(N3C[C@@H](C)OC3=O)C2)c2cnc(Nc3ccnc(-c4cn(C)nc4Cl)n3)cc12 [Example 84, (R)-3-(1-(3-((2-(3-chloro-1-methyl-1H-pyrazol-4-yl)pyrimidin-4-yl)amino)-5-isopropylisoquinolin-8-yl)azetidin-3-yl)-5-methyloxazolidin-2-one] | 93
9 | CC(C)c1ccc(N2C[C@H](CS(C)(=O)=O)[C@H]2C)c2cnc(Nc3ccnc(-c4cnn([C@@H](C)C(F)(F)F)c4)n3)cc12 [Example 22A, 5-isopropyl-8-((2R,3S)-2-methyl-3-((methanesulfonyl)methyl)azetidin-1-yl)-N-(2-(1-((S)-1,1,1-trifluoropropan-2-yl)-1H-pyrazol-4-yl)pyrimidin-4-yl)isoquinolin-3-amine] | 95
10 | CC(C)c1ccc(N2C[C@H](CS(C)(=O)=O)[C@H]2C)c2cnc(Nc3ccnc(-c4cnn(C5(CF)CC5)c4)n3)cc12 [Example 29, N-(2-(1-(1-(fluoromethyl)cyclopropyl)-1H-pyrazol-4-yl)pyrimidin-4-yl)-5-isopropyl-8-((2R,3S)-2-methyl-3-((methanesulfonyl)methyl)azetidin-1-yl)isoquinolin-3-amine] | 64
